The results in this text go back to patent US7223791B2, “Function regulator for retinoid relative receptor” (Takeda Pharmaceutical Company Limited, priority 2001, dated 2007).

In general, melting point refers to the temperature, or range, at which the solid turns liquid. As usually defined, the EC50 is the concentration at which the effect is half-maximal. The low end stands for a more potent agent, the high end for a less potent agent.

One series has as its system KKA^y mice. The experiment in a line: Glucose-lowering and lipid-lowering (triglyceride-lowering) actions in mice. The format is in vivo. The following applies: test compound 0.01% in powdery diet for four days, non-administration group taken as 100%; for glucose-lowering action (%): reduction percent of blood glucose level; for lipid-lowering action (%): reduction percent of blood triglyceride level. The source says: Glucose-Lowering and Lipid-Lowering (Triglyceride-Lowering) Actions in Mice
Test compounds were mixed in a powdery diet (CE-2, Japan Clea) at the proportion of 0.01%, and freely given to KKA^y mice (9 to 12 weeks old, 5 mice per group), a model of obesity-non-insulin dependent diabetes mellitus (type 2 diabetes mellitus), for four days. During this period, water was given freely. Blood was sampled from orbital venous plexus, and glucose and triglyceride levels in plasma separated from the blood were determined enzymatically using L type Wako Glu2 (Wako Pure Chemical Industries, Ltd.) or L type Wako TG-H (Wako Pure Chemical Industries, Ltd.), respectively. The results are given in [Table 1].
In the Table, “glucose-lowering action (%)” represents a reduction percent (%) of the blood glucose level in a test compound administration group when the blood glucose level in a test compound non-administration group is taken as 100%. In addition, “lipid-lowering action (%)” represents a reduction percent (%) of the blood triglyceride level in the test compound administration group when the blood triglyceride level in the test compound non-administration group is taken as 100%.

A further series addresses T1, PPARγ-RXRα heterodimer (Homo sapiens, UniProt P19793+P37231).
T1 construct: 1.4 kb DNA fragment containing PPARγ gene was recovered from the gel; 1.4 kb DNA fragment containing RXRα gene was recovered from the gel; expressed in transfected cells
T1 sequence (P37231 1-477 isoform P37231-2): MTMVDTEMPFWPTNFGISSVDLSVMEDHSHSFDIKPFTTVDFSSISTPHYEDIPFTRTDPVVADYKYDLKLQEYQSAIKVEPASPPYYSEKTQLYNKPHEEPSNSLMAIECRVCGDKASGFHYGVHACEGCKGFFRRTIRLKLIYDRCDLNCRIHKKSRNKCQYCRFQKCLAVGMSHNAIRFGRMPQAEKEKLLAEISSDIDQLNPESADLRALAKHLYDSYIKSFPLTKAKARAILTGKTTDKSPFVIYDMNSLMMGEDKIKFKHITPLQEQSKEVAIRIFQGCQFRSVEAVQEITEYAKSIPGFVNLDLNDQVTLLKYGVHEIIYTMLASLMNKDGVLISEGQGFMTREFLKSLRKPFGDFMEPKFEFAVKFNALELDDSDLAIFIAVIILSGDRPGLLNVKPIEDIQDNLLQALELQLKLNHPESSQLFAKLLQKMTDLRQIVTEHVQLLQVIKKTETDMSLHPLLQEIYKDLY
T1 sequence (P19793 1-462): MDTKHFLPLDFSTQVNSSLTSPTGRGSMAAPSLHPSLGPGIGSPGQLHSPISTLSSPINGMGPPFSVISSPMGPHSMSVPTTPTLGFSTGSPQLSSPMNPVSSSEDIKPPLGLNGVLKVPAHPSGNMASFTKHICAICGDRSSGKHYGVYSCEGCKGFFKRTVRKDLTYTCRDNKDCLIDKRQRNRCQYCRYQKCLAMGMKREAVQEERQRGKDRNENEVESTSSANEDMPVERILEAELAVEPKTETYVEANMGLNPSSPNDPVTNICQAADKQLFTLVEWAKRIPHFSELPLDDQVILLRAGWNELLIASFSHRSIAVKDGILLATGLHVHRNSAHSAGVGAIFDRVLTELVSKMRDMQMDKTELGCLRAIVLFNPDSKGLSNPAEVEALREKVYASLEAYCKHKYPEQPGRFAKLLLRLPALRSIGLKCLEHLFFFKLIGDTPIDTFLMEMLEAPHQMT
The experiment in a line: PPARγ-RXRα heterodimer ligand activity (luciferase reporter, PPARγ:RXRα:4ERPP/CHO-K1 cells). The format is cell-based. The following applies: 48 hrs, concentration for 50% of the maximum fold induction. The protocol:
(PPARγ-RXRα Heterodimer Ligand Activity)
PPARγ: RXRα: 4ERPP/CHO-K1 cells obtained in the following Reference Example 5 were cultured in HAM F12 medium (manufactured by NISSUI SEIYAKU) containing 10% fetal bovine serum [manufactured by Life Technologies, Inc., USA], seeded in a 96-well white plate [manufactured by Corning Coster Corporation, USA] at the density of 2×10^4 cells/well and cultured in a CO2 gas incubator at 37° C. overnight.
After washing the 96-well white plate with PBS (Phosphate-buffered saline), 90 μl of HAM F12 medium containing 0.1% fatty acid-free bovine serum albumin (BSA) and 10 μl of test compound were added, and the cells were cultured in a CO2 gas incubator at 37° C. for 48 hrs. The medium was removed and 40 μl of PicaGene 7.5 (manufactured by Wako Pure Chemical Industries, Ltd.) was added. After stirring, the luciferase activity was determined using Lumistar [manufactured by BMG Labtechnologies GmbH, Germany].
The fold induction was calculated from the luciferase activity of each test compound when the luciferase activity of the test compound non-administration group is taken as 1. The values of the test compound concentration and the fold induction were analyzed using PRISM 2.01 (produced by GraphPad Software Inc. USA) to calculate the EC50 values, the concentration of a test compound for 50% of the maximum fold induction. The results are shown in [Table 2].
Introduction of Human PPARγ- and RXRα-Expression Plasmid and Reporter Plasmid into CHO-K1 Cell as Well as Establishment of Expressed Cell
A CHO-K1 cell cultured in a tissue culture flask (750 ml) [produced by Corning Costar Corporation, USA] containing HAM F12 medium (produced by NISSUI SEIYAKU) supplemented with 10% fetal bovine serum [produced by Life Technologies, Inc., USA] was scraped by treating with 0.5 g/L trypsin-0.2 g/L EDTA (ethylenediamine tetraacetate) [produced by Life Technologies, Inc., USA], and then the cell was washed with PBS (Phosphate-buffered saline)[produced by Life Technologies, Inc., USA], centrifuged (1000 rpm, 5 minutes) and suspended in PBS. Subsequently, DNA was introduced into the cell under the conditions shown below using GENE PULSER (produced by Bio-Rad Laboratories, USA).
Namely, to a cuvette having a 0.4 cm gap were added 8×10^6 cells and 10 μg of plasmid pVgRXR2-hPPARγ obtained in Reference Example 3 and 10 μg of reporter plasmid pGL3-4ERPP-TK neo obtained in Reference Example 4, which was subjected to electroporation at the voltage of 0.25 kV under the capacitance of 960 μF. Subsequently, the cell was transferred into a HAM F12 medium containing 10% fetal bovine serum and cultured for 24 hours, and then the cell was scraped again and centrifuged, and then suspended in HAM F12 medium containing 10% fetal bovine serum supplemented with 500 μg/ml of Geneticin [produced by Life Technologies, Inc., USA] and 250 μg/ml of Zeocin (produced by Invitrogen, USA). The obtained suspension was diluted to the density of 10^4 cells/ml and inoculated in a 96-well plate [produced by Corning Costar Corporation, USA], which was cultured in a CO2 gas incubator at 37° C., whereby obtaining a Geneticin- and Zeocin-resistant transformant.
Subsequently, after the transformant cell line thus obtained was cultured in a 24-well plate [produced by Corning Costar Corporation, USA], a cell line in which the luciferase was expressed and induced, i.e., PPARγ: RXRα: 4ERPP/CHO-K1 cell was selected by the addition of 10 μM pioglitazone hydrochloride.
(In general: In a reporter assay the amount or activity of a reporter protein is the signal.)

On to `COC(=O)c1ccc(-c2nnc(-c3ccc(C(F)(F)F)cc3)s2)cc1` [Example 58, methyl 4-[5-(4-trifluoromethylphenyl)-1,3,4-thiadiazol-2-yl]benzoate], for which the melting point fell in the range of 218 to 219 °C. Also, in the series on KKA^y mice, the “glucose-lowering action (%)” value was determined as 37% and the “lipid-lowering action (%)” value turned out to be 48%.
As to `O=C(O)c1ccc(-c2ccc(-c3ccc(C(F)(F)F)cc3)o2)cc1` [Example 10, 4-[5-(4-trifluoromethylphenyl)-2-furyl]benzoic acid], the melting point lay in the range of 270 to 271 °C. On PPARγ-RXRα heterodimer, this compound showed an EC50 of 3.8 nM. For the same compound, in the series on KKA^y mice, the “glucose-lowering action (%)” value was 37% and the “lipid-lowering action (%)” value amounted to 62%.
On the same counts, the results for `O=C(O)c1ccc(-c2ccc(-c3ccc(Cl)cc3)s2)cc1` [Example 15, 4-[5-(4-chlorophenyl)-2-thienyl]benzoic acid] are 285 to 286 °C, 22 nM, 30% and 54%.
Compound `Cn1c(-c2ccc(C(=O)O)cc2)ccc1-c1ccc(C(F)(F)F)cc1` [Example 7, 4-[1-methyl-5-(4-trifluoromethylphenyl)-2-pyrrolyl]benzoic acid] had a melting point of 260 to 261 °C. This compound also displayed an EC50 on PPARγ-RXRα heterodimer of 7.6 nM.
